Converted amounts (≈) assume the structure as drawn.
Assays:
[1] = kinetic aqueous solubility in pH 7 citrate buffer; assay type: physicochemical; settings: kinetic from dmso stock, pH 7 citrate buffer solution, read-out: Kinetic Aq solubility (μM pH 7)
recombinant 15-PGDH = target: T1, recombinant 15-PGDH (Homo sapiens, UniProt P15428); assay: inhibition of enzymatic activity of recombinant 15-PGDH in vitro; assay type: biochemical; settings: recombinant human 15-PGDH
T1 sequence (P15428 1-266): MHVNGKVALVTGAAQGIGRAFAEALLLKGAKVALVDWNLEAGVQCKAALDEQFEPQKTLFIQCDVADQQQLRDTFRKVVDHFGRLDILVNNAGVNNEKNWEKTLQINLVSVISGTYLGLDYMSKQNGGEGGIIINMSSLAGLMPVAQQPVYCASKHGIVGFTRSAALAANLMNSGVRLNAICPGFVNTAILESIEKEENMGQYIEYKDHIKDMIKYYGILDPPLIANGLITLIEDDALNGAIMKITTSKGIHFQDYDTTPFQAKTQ
Text: The Recombinant 15-PGDH is human unless otherwise specified.

hERG channels = hERG channels (Homo sapiens, UniProt Q12809); assay: hERG test on manual patch-clamp system; assay type: cell-based; settings: CHO-K1 cells expressing hERG, whole-cell patch clamp, room temperature
Chain of hERG channels (Q12809 whole entry): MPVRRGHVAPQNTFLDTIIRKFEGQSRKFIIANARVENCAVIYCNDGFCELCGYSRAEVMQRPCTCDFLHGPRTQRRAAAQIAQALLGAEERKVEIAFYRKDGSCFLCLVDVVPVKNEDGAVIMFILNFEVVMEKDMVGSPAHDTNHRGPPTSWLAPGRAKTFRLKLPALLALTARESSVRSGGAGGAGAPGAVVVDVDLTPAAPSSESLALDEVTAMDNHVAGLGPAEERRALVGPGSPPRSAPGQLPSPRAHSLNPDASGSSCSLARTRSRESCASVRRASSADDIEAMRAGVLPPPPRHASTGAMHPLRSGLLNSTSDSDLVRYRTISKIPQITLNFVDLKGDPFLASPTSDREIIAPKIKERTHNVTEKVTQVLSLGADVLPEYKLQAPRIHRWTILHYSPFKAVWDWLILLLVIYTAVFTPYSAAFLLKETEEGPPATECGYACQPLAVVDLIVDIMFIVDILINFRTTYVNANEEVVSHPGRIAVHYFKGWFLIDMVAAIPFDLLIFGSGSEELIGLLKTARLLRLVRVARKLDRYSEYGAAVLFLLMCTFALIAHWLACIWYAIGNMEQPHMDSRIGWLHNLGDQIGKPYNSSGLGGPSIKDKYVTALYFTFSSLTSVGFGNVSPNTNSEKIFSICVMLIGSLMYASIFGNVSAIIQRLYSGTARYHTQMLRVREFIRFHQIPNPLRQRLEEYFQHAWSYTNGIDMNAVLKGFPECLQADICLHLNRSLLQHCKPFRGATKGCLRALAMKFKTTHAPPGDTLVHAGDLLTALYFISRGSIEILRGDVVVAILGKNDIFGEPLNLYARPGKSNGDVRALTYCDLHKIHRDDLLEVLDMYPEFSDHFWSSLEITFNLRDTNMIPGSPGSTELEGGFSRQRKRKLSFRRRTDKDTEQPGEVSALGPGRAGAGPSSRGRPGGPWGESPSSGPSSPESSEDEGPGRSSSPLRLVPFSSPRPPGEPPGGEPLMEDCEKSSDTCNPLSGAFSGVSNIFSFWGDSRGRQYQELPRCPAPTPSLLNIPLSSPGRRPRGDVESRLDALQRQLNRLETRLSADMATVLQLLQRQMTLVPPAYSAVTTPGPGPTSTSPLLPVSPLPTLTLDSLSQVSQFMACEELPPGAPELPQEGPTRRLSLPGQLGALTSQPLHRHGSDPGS
Protocol: Visual check for precipitation was conducted before testing.

CYP 1A2 = target: T2, CYP 1A2 (Homo sapiens, UniProt P05177); assay: microsomal CYP inhibition, 1A2; assay type: in vitro ADME; settings: human liver microsomes 0.2 mg/ml, substrate Phenacetin
T2 construct: pooled human liver microsomes (Corning, Xenotech, or other qualified vendors; pooled from multiple donors); tissue Corning, Xenotech, or other qualified vendors; host or cells: pooled human liver microsomes
T2 sequence (P05177 1-516): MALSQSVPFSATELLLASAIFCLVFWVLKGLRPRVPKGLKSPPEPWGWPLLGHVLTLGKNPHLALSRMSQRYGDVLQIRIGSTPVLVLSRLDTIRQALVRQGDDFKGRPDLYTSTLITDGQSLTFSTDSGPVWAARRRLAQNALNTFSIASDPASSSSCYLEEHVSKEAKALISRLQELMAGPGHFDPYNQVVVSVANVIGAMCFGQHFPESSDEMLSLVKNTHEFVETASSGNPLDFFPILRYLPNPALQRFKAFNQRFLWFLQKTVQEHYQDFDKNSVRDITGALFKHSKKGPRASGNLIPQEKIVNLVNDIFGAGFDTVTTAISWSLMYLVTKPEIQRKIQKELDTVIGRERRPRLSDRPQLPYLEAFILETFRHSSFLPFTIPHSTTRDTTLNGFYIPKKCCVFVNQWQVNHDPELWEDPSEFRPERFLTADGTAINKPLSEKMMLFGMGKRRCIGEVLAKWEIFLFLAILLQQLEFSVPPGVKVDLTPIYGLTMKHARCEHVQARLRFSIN
Protocol: (§1) CYP450 enzymatic activities was determined using 5in1 marker substrate cocktail. For each reaction, enzyme activities in the presence of the test compound at 8 concentrations (0, 0.05, 0.15, 0.5, 1.5, 5.0, 15.0, or 50.0 μM) were measured in singlet (n=1). A known inhibitor for each isoform, tested at a single concentration (3.0 μM) in duplicate (n=2), was included as positive control. Incubation mixture containing pooled human liver microsomes (Corning, Xenotech, or other qualified vendors; pooled from multiple donors) at 0.2 mg/ml, marker substrates and standard inhibitors (listed in the following table) or the test compound was warm up at 37° C. for 10 minutes. The reactions were initiated by the addition of the NADPH (1.0 mM). […] After the mixture was incubated at 37° C. for 10 minutes, ice cold acetonitrile containing the internal standard (IS) was added to terminate the reactions. The metabolites generated from the marker substrates were measured by LC-MS/MS and were assessed based on peak area ratios of the analyte to IS. The remaining activity (expressed as % of control activity) were calculated; IC50 values of the test compound were determined using SigmaPlot or XLfit with 3- or 4-parameter logistic sigmoidal equation.

[2] = in vitro microsome metabolic stability, human (HLM); assay type: in vitro ADME; settings: pooled human liver microsomes, pH 7.4; human liver microsomes 0.5 mg/mL, 1 μM compound, NADPH, 37° C.; read-out: HLM (T1/2, min)
Protocol: (§2) Human microsome stability (HLM), mouse microsome stability (MLM), hERG IC50, Caco-2 permeability, CYP inhibition, and pharmacokinetic (PK) properties were determined on selected compounds of the disclosure.
(§3) Pooled liver microsomes (Human and CD-1 mouse) were purchased from Corning or XenoTech LLC and stored at −80° C. freezer before use. NADPH cofactor system—β-Nicotinamide adenine dinucleotide phosphate reduced form, tetrasodium salt, NADPH·4Na(NADPH) (Vendor: Chem-impex international, Cat.No. 00616) was used. Control compounds were Testosterone, Diclofenac, Propafenone.
(§4) Stock solution—Test compound was 10 mM in DMSO (Dimethyl Sulfoxide).
(§5) Working solution—Dilute 5 μL of compound or control from stock solution (10 mM) with 495 μL 100% Acetonitrile (Conc.: 100 μM, 99% ACN, 1% DMSO; final concentration in reaction system: 1 μM, 0.99% ACN, 0.01% DMSO).
(§6) Potassium Phosphate Buffer 100 mM (pH 7.4±0.1)
(§7) NADPH Cofactor: The appropriate amount of NADPH powder was weighed, and diluted into MgCl2 solution (work solution concentration: 10 mM NADPH and 10 mM MgCl2; final concentration in reaction system: 1 mM NADPH and 1 mM MgCl2).
(§8) Liver microsome preparation (0.5 mg/mL): Pipette appropriate volume of microsome (20 mg/mL) to 100 mM buffer solution (Conc.: 0.56 mg/mL, Final concentration in reaction system: 0.5 mg/mL).
(§9) Automatic Workstation was used for all liquid handling and incubation.

CYP 3A4 = target: T3, CYP 3A4 (Homo sapiens, UniProt P08684); assay: microsomal CYP inhibition, 3A4; assay type: in vitro ADME; settings: human liver microsomes 0.2 mg/ml, substrate Midazolam; read-out: CYP inhibition (μM) 3A4 (3A4M)
T3 construct: pooled human liver microsomes (Corning, Xenotech, or other qualified vendors; pooled from multiple donors); tissue Corning, Xenotech, or other qualified vendors; host or cells: pooled human liver microsomes
T3 sequence (P08684 whole entry): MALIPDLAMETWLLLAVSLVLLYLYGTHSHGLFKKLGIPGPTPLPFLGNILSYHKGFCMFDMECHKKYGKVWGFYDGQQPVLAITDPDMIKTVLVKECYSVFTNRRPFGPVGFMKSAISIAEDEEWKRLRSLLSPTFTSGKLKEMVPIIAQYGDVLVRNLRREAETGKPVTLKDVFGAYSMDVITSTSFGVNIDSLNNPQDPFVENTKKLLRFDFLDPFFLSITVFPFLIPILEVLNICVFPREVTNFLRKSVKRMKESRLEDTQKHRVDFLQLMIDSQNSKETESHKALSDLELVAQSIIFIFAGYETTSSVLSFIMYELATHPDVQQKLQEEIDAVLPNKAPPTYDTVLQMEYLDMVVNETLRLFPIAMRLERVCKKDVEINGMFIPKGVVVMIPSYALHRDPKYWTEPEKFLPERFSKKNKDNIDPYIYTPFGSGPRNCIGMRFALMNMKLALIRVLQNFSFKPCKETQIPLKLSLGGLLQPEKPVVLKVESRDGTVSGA
Protocol: as §1

Caco-2 Cells = assay: Caco-2 permeability test; assay type: in vitro ADME; settings: Caco-2, 2.0 μM, 2 hours, pH 7.40
Protocol: (§10) Caco-2 Cells (obtained from ATCC) were seeded onto PET membranes of 96-well Insert Plates and cultured for 21-28 days before being used in the transport assays. The integrity of the monolayer was verified by performing Lucifer yellow rejection assay. The quality of the monolayer was verified by measuring the unidirectional (A to B) permeability of nadolol (low permeability marker), metoprolol (high permeability marker) and bi-directional permeability of digoxin (a P-glycoprotein substrate marker) in duplicate wells. Nadolol and metoprolol were tested at 2.0 μM, and digoxin was tested at 10.0 μM. […]
(§11) Dosing solutions were removed and mixed with transport buffer and Stop Solution containing an appropriate internal standard (IS) as T0 samples. […] All samples including T0 samples, donor samples and receiver samples were analyzed using LC/MS/MS. Concentrations of test compounds were expressed as peak area ratio of analytes to IS without a standard curve.
(§12) The A to B and B to A apparent permeability coefficients (Papp), % Solution Recovery, and Efflux ratio (ER) were determined.

Caco-2 permeability test = assay type: in vitro ADME; settings: human, pH 7.4, Caco-2, 2.0 μM, A to B and B to A, pH 7.40, read-out: Caco summary: ER (efflux ratio)
Protocol: as §10, §11, §12

CYP 2C9 = target: T4, CYP 2C9 (Homo sapiens, UniProt P11712); assay: microsomal CYP inhibition, 2C9; assay type: in vitro ADME; settings: human liver microsomes 0.2 mg/ml, substrate Diclofenac
T4 construct: pooled human liver microsomes (Corning, Xenotech, or other qualified vendors; pooled from multiple donors); tissue Corning, Xenotech, or other qualified vendors; host or cells: pooled human liver microsomes
T4 sequence (P11712 whole entry): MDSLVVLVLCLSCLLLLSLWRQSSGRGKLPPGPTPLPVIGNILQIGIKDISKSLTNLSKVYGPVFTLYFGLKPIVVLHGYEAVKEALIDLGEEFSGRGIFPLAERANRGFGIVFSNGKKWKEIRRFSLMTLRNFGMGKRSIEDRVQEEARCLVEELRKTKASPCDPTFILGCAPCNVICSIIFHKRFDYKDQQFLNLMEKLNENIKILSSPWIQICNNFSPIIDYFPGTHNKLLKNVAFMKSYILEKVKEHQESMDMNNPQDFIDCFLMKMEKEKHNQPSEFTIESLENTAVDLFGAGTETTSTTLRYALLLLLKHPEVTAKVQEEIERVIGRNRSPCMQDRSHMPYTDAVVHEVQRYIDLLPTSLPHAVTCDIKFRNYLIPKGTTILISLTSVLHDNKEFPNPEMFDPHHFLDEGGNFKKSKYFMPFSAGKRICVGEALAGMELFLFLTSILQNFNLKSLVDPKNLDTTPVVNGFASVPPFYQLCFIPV
Protocol: as §1

CYP 2C19 = target: T5, CYP 2C19 (Homo sapiens, UniProt P33261); assay: microsomal CYP inhibition, 2C19; assay type: in vitro ADME; settings: human liver microsomes 0.2 mg/ml, substrate S-Mephenytoin
T5 construct: pooled human liver microsomes (Corning, Xenotech, or other qualified vendors; pooled from multiple donors); tissue Corning, Xenotech, or other qualified vendors; host or cells: pooled human liver microsomes
T5 sequence (P33261 whole entry): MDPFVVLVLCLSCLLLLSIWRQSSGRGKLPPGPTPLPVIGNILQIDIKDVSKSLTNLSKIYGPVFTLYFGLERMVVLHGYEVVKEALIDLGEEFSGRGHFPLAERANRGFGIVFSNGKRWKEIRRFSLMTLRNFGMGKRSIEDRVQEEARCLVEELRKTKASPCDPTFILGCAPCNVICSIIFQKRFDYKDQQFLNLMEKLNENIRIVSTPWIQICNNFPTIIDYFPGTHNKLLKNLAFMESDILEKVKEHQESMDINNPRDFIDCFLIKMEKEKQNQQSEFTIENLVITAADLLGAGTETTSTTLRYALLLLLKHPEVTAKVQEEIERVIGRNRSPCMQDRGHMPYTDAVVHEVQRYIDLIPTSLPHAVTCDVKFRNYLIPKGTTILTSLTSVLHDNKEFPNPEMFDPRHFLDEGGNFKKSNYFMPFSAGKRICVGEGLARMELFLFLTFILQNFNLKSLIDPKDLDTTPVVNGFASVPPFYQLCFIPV
Protocol: as §1

CYP 2D6 = target: T6, CYP 2D6 (Homo sapiens, UniProt P10635); assay: microsomal CYP inhibition, 2D6; assay type: in vitro ADME; settings: human liver microsomes 0.2 mg/ml, substrate Dextromethorphan
T6 construct: pooled human liver microsomes (Corning, Xenotech, or other qualified vendors; pooled from multiple donors); tissue Corning, Xenotech, or other qualified vendors; host or cells: pooled human liver microsomes
T6 sequence (P10635 whole entry): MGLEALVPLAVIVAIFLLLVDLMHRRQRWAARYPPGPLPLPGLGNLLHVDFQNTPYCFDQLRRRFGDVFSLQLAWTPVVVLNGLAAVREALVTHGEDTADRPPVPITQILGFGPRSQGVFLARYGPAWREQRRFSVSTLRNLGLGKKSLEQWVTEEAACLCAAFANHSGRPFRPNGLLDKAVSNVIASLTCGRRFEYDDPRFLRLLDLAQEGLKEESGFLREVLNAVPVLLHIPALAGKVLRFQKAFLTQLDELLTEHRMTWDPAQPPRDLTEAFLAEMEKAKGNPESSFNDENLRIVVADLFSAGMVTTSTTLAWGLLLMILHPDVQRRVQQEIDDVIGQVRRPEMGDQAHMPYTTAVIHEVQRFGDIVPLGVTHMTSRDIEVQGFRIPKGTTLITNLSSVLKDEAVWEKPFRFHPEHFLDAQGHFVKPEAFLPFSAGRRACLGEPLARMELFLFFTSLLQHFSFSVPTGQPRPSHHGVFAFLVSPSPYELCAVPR
Protocol: as §1

[3] = in vitro microsome metabolic stability, mouse (MLM); assay type: in vitro ADME; settings: pooled CD-1 mouse liver microsomes, pH 7.4; CD-1 mouse liver microsomes 0.5 mg/mL, 1 μM compound, NADPH, 37° C.; read-out: MLM (T1/2, min)
Protocol: as §2, §3, §4, §5, §6, §7, §8, §9

solubility kinetic [1] [µM] | IC50 (recombinant 15-PGDH) [µM] | IC50 (CYP 1A2) [µM] | half-life at 1 μM [2] [min] | IC50 (CYP 3A4) [µM] | Caco summary: permeability (high/low) (Caco-2 Cells) | efflux ratio at 2 h, 2 μM (Caco-2 permeability test) | IC50 (CYP 2C9) [µM] | IC50 (CYP 2C19) [µM] | IC50 (CYP 2D6) [µM] | half-life at 1 μM [3] [min] | Structure (SMILES) | IC50 (hERG channels) [µM]
169 (≈ 82.6 µg/mL) | < 0.0025 |  |  |  |  |  |  |  |  |  | COCC[S@@+]([O-])c1sc2nc(-c3cnc4nn(C)cc4c3)c(C#N)c(-c3ccccc3)c2c1N [Compound 9, (R)-3-amino-2-((2-methoxyethyl)sulfinyl)-6-(2-methyl-2H-pyrazolo[3,4-b]pyridin-5-yl)-4-phenylthieno[2,3-b]pyridine-5-carbonitrile] | 13
188 (≈ 83.6 µg/mL) | < 0.0025 | > 50 | 100 | 39 | high | 1 | 4 | 1 | 29 | 86 | COCC[S@@+]([O-])c1sc2nc(-c3cnc4nn(C)nc4c3)cc(C(C)(C)C)c2c1N [Compound 29, 4-tert-butyl-2-[(R)-2-methoxyethanesulfinyl]-6-{2-methyl-2H-[1,2,3]triazolo[4,5-b]pyridin-6-yl}thieno[2,3-b]pyridin-3-amine] | 11
